Source: patent publication US20050119304A1, “Urea derivatives” (priority 2001, published 2005)
pIC50: −log10 of the molar value. Read-outs that look alike come from different tables or passages of the source.

Tests used:
[1] = target: T1, human VR1 (Homo sapiens, UniProt Q8NER1); assay: Capsaicin-induced Ca2+ influx in the human VR1-transfected CHO cell line (Assay 1); assay type: cell-based
T1 construct: The cloned hVR1 cDNA was constructed with pcDNA3 vector and transfected into a CHOluc9aeq cell line; expressed in transfected cells
T1 sequence (Q8NER1 whole entry): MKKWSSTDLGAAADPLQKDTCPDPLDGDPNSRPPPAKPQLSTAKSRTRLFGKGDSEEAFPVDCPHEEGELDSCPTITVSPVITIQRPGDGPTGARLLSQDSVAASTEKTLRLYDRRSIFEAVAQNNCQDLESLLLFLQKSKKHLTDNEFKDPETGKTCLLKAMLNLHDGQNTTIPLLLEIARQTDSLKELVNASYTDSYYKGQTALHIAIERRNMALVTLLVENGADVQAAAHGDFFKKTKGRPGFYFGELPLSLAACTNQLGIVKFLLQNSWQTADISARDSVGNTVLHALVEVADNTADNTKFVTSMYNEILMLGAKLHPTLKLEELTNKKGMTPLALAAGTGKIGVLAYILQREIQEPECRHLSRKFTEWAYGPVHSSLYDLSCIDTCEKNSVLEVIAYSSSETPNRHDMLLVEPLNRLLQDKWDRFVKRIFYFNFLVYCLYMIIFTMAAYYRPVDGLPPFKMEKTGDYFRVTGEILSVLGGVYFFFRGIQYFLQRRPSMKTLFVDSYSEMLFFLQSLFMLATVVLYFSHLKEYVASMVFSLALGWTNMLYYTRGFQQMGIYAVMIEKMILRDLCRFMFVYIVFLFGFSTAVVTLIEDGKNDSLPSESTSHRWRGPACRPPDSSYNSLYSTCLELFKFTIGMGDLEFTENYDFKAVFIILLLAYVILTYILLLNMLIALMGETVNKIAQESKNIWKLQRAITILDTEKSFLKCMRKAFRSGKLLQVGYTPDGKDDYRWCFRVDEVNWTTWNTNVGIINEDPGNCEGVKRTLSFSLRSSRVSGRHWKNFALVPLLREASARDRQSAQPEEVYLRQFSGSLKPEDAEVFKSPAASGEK
Source text: [Measurement of Capsaicin-Induced Ca^2+ Influx in the Human VR1-Transfected CHO Cell Line] (Assay 1)
(1) Establishment of the Human VR1-CHOluc9aeq Cell Line
Human vanilloid receptor (hVR1) cDNA was cloned from libraries of axotomized dorsal root ganglia (WO2000/29577). The cloned hVR1 cDNA was constructed with pcDNA3 vector and transfected into a CHOluc9aeq cell line. The cell line contains aequorin and CRE-luciferase reporter genes as read-out signals. The transfectants were cloned by limiting dilution in selection medium (DMEM/F12. medium (Gibco BRL) supplemented with 10% FCS, 1.4 mM Sodium pyruvate, 20 mM HEPES, 0.15% Sodium bicarbonate, 100 U/ml penicillin, 100 μg/ml strept mycin, 2 mM glutamine, non-essential amino acids and 2 mg/ml G418). Ca^2+ influx was examined in the capsaicin-stimulated clones. A high responder clone was selected and used for further experiments in the project. The human VR1-CHOluc9aeq cells were maintained in the selection medium and passaged every 3-4 days at 1-2.5×10^5 cells/flask ([…]).
(2) Measurement of Ca^2+ Influx Using FDSS-3000
Human VR1-CHOluc9aeq cells were suspended in a culture medium which is the same as the selection medium except for G418 and seeded at a density of 1,000 cells per well into 384-well plates (black walled clear-base/Nalge Nunc International). Following the culture for 48 hrs the medium was changed to 2 μM Fluo-3 AM (Molecular Probes) and 0.02% Puronic F-127 in assay buffer (Hank's balanced salt solution (HBSS), 17 mM HEPES (pH7.4), 1 mM Probenecid, 0.1% BSA) and the cells were incubated for 60 min at 25° C. After washing twice with assay buffer the cells were incubated with a test compound or vehicle for 20 min at 25° C. Mobilization of cytoplasmic Ca^2+ was measured by FDSS-3000 (λex=488 nm, λem=540 nm/Hamamatsu Photonics) for 60 sec after the stimulation with 10 nM capsaicin. Integral R was calculated and compared with controls.
The data corresponds to the compounds as yielded by solid phase synthesis and thus to levels of purity of about 40 to 90%.

| Structure (SMILES) | pIC50 ([1]; read-out: Activity grade) | melting point [°C] | pIC50 ([1]; read-out: hVR1 class) |
| --- | --- | --- | --- |
| O=C(Nc1ccc(Cl)c(C(F)(F)F)c1)Nc1ccc2ncsc2c1 [Example 1, N-(1,3-benzothiazol-6-yl)-N′-[4-chloro-3-(trifluoromethyl)phenyl]urea] | > 7.00 | 225 to 228 |  |
| O=C(Nc1cccc(-c2ccccc2)c1)Nc1cccc2[nH]ccc12 [Example 2, N-(1,1′-biphenyl-3-yl)-N′-(1H-indol-4-yl)urea] | > 7.00 | 213 to 215 |  |
| O=C(Nc1ccc(Cl)c(C(F)(F)F)c1)Nc1ccc2[nH]ncc2c1 [Example 3] |  | > 250 | > 7.00 |
| O=C(Nc1ccc(Cl)c(C(F)(F)F)c1)Nc1cccc2[nH]nnc12 [Example 4] |  | 232 to 235 | 6.30 to 7.00 |
| O=C(Nc1ccc(Cl)c(C(F)(F)F)c1)Nc1ccc2[nH]ccc2c1 [Example 5] |  | 234 to 235 | 6.30 to 7.00 |
| O=C(Nc1ccc(Cl)c(C(F)(F)F)c1)Nc1ccc2cc[nH]c2c1 [Example 6] |  | 245 to 248 | 6.30 to 7.00 |
| O=C(Nc1ccc(Cl)c(C(F)(F)F)c1)Nc1cccc2cc[nH]c12 [Example 7] |  | 229 to 233 | > 7.00 |
| O=C(Nc1ccc(Cl)c(C(F)(F)F)c1)Nc1cccc2[nH]ccc12 [Example 8] |  | 230 to 233 | > 7.00 |
| O=C(Nc1ccc(Cl)c(C(F)(F)F)c1)Nc1cccc2[nH]c(C(F)(F)F)nc12 [Example 9] |  | 165 to 169 | > 7.00 |
| O=C(Nc1ccc(Cl)c(C(F)(F)F)c1)Nc1ccc2[nH]nnc2c1 [Example 10] |  | > 250 | 6.30 to 7.00 |
| O=C(NCc1ccc(Br)cc1)Nc1cccc2cc[nH]c12 [Example 11] |  | 205 to 208 | > 7.00 |
| O=C(Nc1ccc(Oc2ccccc2)cc1)Nc1cccc2cc[nH]c12 [Example 12] |  | 216 to 218 | 6.30 to 7.00 |
| O=C(Nc1ccc(Cl)c(C(F)(F)F)c1)Nc1ccc2c(c1)S(=O)(=O)C=C2 [Example 13] |  |  | > 7.00 |
| CSc1nc2ccc(NC(=O)Nc3ccc(Cl)c(C(F)(F)F)c3)cc2s1 [Example 14] |  | 236 to 238 | 6.30 to 7.00 |
| Cc1nc2ccc(NC(=O)Nc3ccc(Cl)c(C(F)(F)F)c3)cc2s1 [Example 15] |  | 234 to 235 | 6.30 to 7.00 |
| Cc1nc2cc(NC(=O)Nc3ccc(Cl)c(C(F)(F)F)c3)ccc2s1 [Example 16] |  | 152 to 155 | > 7.00 |
| O=C(Nc1ccc2c(c1)C(=O)OC2)Nc1ccc(Cl)c(C(F)(F)F)c1 [Example 17] |  | > 250 | 6.30 to 7.00 |

| Structure (SMILES) | pIC50 ([1]; read-out: Activity grade) | melting point [°C] | pIC50 ([1]; read-out: hVR1 class) |
| --- | --- | --- | --- |
| O=C(Nc1ccc(Cl)c(C(F)(F)F)c1)Nc1ccc2[nH]c(=S)sc2c1 [Example 18] |  | > 250 | 6.00 to 6.30 |
| O=C(Cc1ccc(Cl)c(C(F)(F)F)c1)Nc1ccc2cn[nH]c2c1 [Example 19] |  | > 250 | 6.00 to 6.30 |
| Cc1cccc(NC(=O)Nc2ccc3sc(C)nc3c2)c1 [Example 20] |  | 200 to 202 | > 7.00 |
| CSc1cccc(NC(=O)Nc2ccc3sc(C)nc3c2)c1 [Example 21] |  | 225 to 227 | 6.30 to 7.00 |
| Cc1nc2cc(NC(=O)Nc3ccc(F)cc3)ccc2s1 [Example 22] |  | 241 to 242 | > 7.00 |
| Cc1nc2cc(NC(=O)Nc3cccc(C(F)(F)F)c3)ccc2s1 [Example 23] |  | 229 to 231 | > 7.00 |
| COc1cccc(NC(=O)Nc2ccc3sc(C)nc3c2)c1 [Example 24] |  | 199 to 201 | 6.30 to 7.00 |
| Cc1nc2cc(NC(=O)Nc3ccc(Oc4ccccc4)cc3)ccc2s1 [Example 25] |  | 228 to 229 | > 7.00 |
| Cc1nc2cc(NC(=O)Nc3ccc(Br)cc3)ccc2s1 [Example 26] |  | > 250 | > 7.00 |
| Cc1nc2cc(NC(=O)Nc3ccc4ccccc4c3)ccc2s1 [Example 27] |  | > 250 | > 7.00 |
| COc1ccc(NC(=O)Nc2ccc3sc(C)nc3c2)cc1 [Example 28] |  | 215 to 217 | 6.30 to 7.00 |
| Cc1nc2cc(NC(=O)Nc3ccc(Cl)c(Cl)c3)ccc2s1 [Example 29] |  |  | > 7.00 |
| Cc1nc2cc(NC(=O)Nc3ccc(F)cc3F)ccc2s1 [Example 30] |  | 243 to 244 | > 7.00 |
| Cc1nc2cc(NC(=O)Nc3ccc(C)c(Cl)c3)ccc2s1 [Example 31] |  | 230 to 232 | > 7.00 |
| Cc1nc2cc(NC(=O)Nc3cc(C(F)(F)F)ccc3Cl)ccc2s1 [Example 32] |  | 240 to 241 | > 7.00 |
| Cc1cccc(NC(=O)Nc2cccc3[nH]ccc23)c1 [Example 33] |  | 237 to 239 | 6.30 to 7.00 |
| CSc1cccc(NC(=O)Nc2cccc3[nH]ccc23)c1 [Example 34] |  | 198 to 201 | 6.30 to 7.00 |

Further lines, results first:

| pIC50 ([1]; read-out: Activity grade) | melting point [°C] | pIC50 ([1]; read-out: hVR1 class) | Structure (SMILES) |
| --- | --- | --- | --- |
|  | 239 to 241 | 6.30 to 7.00 | O=C(Nc1ccc(F)cc1)Nc1cccc2[nH]ccc12 [Example 35] |
|  | 219 to 221 | 6.30 to 7.00 | COc1cccc(NC(=O)Nc2cccc3[nH]ccc23)c1 [Example 36] |
|  | 212 to 214 | 6.30 to 7.00 | O=C(Nc1ccc(Oc2ccccc2)cc1)Nc1cccc2[nH]ccc12 [Example 37] |
|  | 219 to 222 | 6.00 to 6.30 | Cc1cccc(NC(=O)Nc2ccc3c(c2)S(=O)(=O)C=C3)c1 [Example 38] |
|  | 208 to 210 | > 7.00 | Cc1nc2cc(NC(=O)Nc3ccc(C(C)C)cc3)ccc2s1 [Example 39] |
|  | > 250 | > 7.00 | Cc1nc2cc(NC(=O)Nc3cccc4ccccc34)ccc2s1 [Example 40] |
|  | 211 to 213 | > 7.00 | O=C(Nc1cccc(C(F)(F)F)c1)Nc1cccc2[nH]ccc12 [Example 41] |
|  | 212 to 213 | 6.30 to 7.00 | CSc1cccc(NC(=O)Nc2ccc3c(c2)S(=O)(=O)C=C3)c1 [Example 42] |
|  | 242 to 243 | 6.00 to 6.30 | O=C(Nc1ccc(F)cc1)Nc1ccc2c(c1)S(=O)(=O)C=C2 [Example 43] |
|  | > 250 |  | O=C(Nc1cccc(C(F)(F)F)c1)Nc1ccc2c(c1)S(=O)(=O)C=C2 [Example 44] |
|  | 206 to 208 | 6.00 to 6.30 | COc1cccc(NC(=O)Nc2ccc3c(c2)S(=O)(=O)C=C3)c1 [Example 45] |
|  | 204 to 206 | 6.30 to 7.00 | O=C(Nc1cccc(-c2ccccc2)c1)Nc1ccc2[nH]ccc2c1 [Example 46] |
|  |  | 6.30 to 7.00 | Cc1nc2cc(NC(=O)Nc3cccc(-c4ccc(Cl)cc4)c3)ccc2s1 [Example 47] |
|  |  | 6.00 to 6.30 | Cc1cccc(NC(=O)Nc2ccc3[nH]ncc3c2)c1 [Example 103] |
|  |  | 6.00 to 6.30 | O=C(Nc1ccc(Cl)c(C(F)(F)F)c1)Nc1ccc2[nH]c(C(F)(F)F)nc2c1 [Example 104] |
|  |  | 6.00 to 6.30 | O=C(NCc1ccc(Br)cc1)Nc1cccc2[nH]c(C(F)(F)F)nc12 [Example 105] |
|  |  | 6.30 to 7.00 | O=C(Nc1ccc(Oc2ccccc2)cc1)Nc1cccc2[nH]c(C(F)(F)F)nc12 [Example 106] |
